The results in this text go back to patent publication EP0370481A2, “Pharmaceutical preparations for the enhanced resorption of antibacterial compounds” (priority 1988, dated 1990).

Data set [1] can be described thus: Rectal absorption in vivo (monkeys): suppositories, plasma level. The text has this: Für diesen Versuch wurden männliche und weibliche erwachsene Affen (Papio anubis und Papio hamadryas) im Gewicht vom 12-27 kg verwendet, die 24 Stunden vor der Verabreichung des Antibiotikums fasten gelassen wurden, dann durch i.m.-Injektionen von Kefamin Hydrochlorid vor der Verabreichung des Antibiotikums sediert wurden. Aus den nachstehend beschriebenen Formulierungen wurden Suppositorien hergestellt die den Tieren verabreicht wurden. Die Rektalöffnungen wurden dann mit Klebeband verschlossen, um ein Herausdrücken der Suppositorienmasse zu vermeiden.
Zur Messung der Resorption des Antibiotikums in den Blutstrom wurden Blutproben aus der Femoralregion vor der Verabreichung des Antibiotikums und 15, 30, 60, 120, 240, 360 und 480 Minuten danach entnommen. Proben wurden zentrifugiert und wie oben beschrieben vermessen.

The nature of data set [2]: Oral absorption in vivo (dogs): enteric-coated hard gelatin capsules by gavage, plasma level. The conditions noted are these: for Cmax: male, beagle, dog, plasma. The text has this: Für diesen Versuch wurden männliche Beagle-Hunde im Gewicht von 10-14 kg verwendet, die 2-3 Hartgelatinekapseln durch die Schlundsonde erhielten. Die Kapseln hatten folgende Zusammensetzung:
Die Kapseln waren mit einem Ueberzug von Polyvinylacetatphthalat (etwa 8% des Kapselgewichtes versehen).
Die Plasmakonzentrationen wurden von Ceftriaxon vor der Verabreichung und 10, 20, 40, 60, 120, 180 und 240 Minuten nach der Verabreichung ermittelt. Die Messungen wurden in Blutplasma nach Deproteinisierung weiter oben beschrieben ermittelt.

A short description of data set [3]: Enteral absorption in vivo (dogs): capsules through a modified Thomas cannula into the proximal jejunum, plasma level and bioavailability. The conditions noted are these: for Cmax: beagle, dog, plasma. As for the experimental part:
Als Versuchstiere wurden sechs Beagle-Hunde im Gewicht von etwa 10-16 kg eingesetzt, denen eine modifizierte Thomaskanüle in das distale Duodenum eingesetzt worden war. […] Die Kapseln wurden durch die modifizierte Thomaskanüle in das proximale Jejunum appliziert. Die Dosierung war 20-50 mg Ceftriaxon pro kg Körpergewicht.
Die Plasmakonzentrationen von Ceftriaxon wurden vor der Verabreichung und 10, 20, 40, 60, 120, 180 und 240 Minuten nach der Verabreichung ermittelt. Zur Erstellung einer Standardkurve wurde Ceftriaxon mit normalem Hundeplasma verdünnt und deproteinisiert. Die Fläche unter der Kurve (AUC) wurde für jede Verabreichungsweise bestimmt. Aus diesen Bestimmungen wurde die Bioverfügbarkeit wie folgt berechnet. [formula]
Wenn keine i.v.-Daten für den gleichen enteral verwendeten Dosisspiegel verfügbar waren, wurde die folgende Gleichung angewandt: [formula]

Data set [4] in a line: Oral absorption in vivo (monkeys): enteric-coated hard gelatin capsules by gavage, plasma bioassay. The conditions noted are these: for Cmax: monkey, plasma. As for the experimental part: Erwachsene Affen (Papio anubis und Papio hamadryas) im Gewicht von 12-30 kg wurden über Nacht fasten gelassen, dann durch i.m.-Injektion von Ketaminhydrochlorid vor der Verabreichung des Antibiotikums sediert. Jeder Affe erhielt vier Hartgelatinekapseln durch Schlundsonde mit der folgenden Zusammensetzung:
Die Kapseln wurden mit einem Ueberzug von Polyvinylacetatphthalat (etwa 8% des Kapselgewichtes versehen).
1 ml Pro Blutproben wurden aus der Femoralregion jedes Affen mit einer heparinisierten 3-ml Spritze entnommen. Die Proben wurden vor der Verabreichung des Antibiotikums und 15, 30, 60, 120, 240, 360, 480, 600 und 720 Minuten danach entnommen. Die Blutproben wurden zentrifugiert und das Plasma nach Deproteinisierung mit Acetonitril einem Bioassay unterworfen.

A short description of data set [5]: Enteral absorption in vivo (rats): intraduodenal injection, antibiotic plasma level by agar-plate bioassay. The conditions noted are these: Dosis = 5 mg/0,5 ml. The source says:
Weibliche Ratten im Gewicht von etwa 250 g wurden über Nacht fasten gelassen und mit Metofan anästhesiert. Die Antibiotika wurden in Lösung mit oder ohne Resorptionsver, stärker nach Bauchschnitt in das Duodenum unterhalb des Magenausgangs injiziert. Für Vergleichszwecke wurde die Lösung alternativ intravenös in die Schwanzvene appliziert.
Die Konzentration des Antibiotikums im Plasma der Ratte wurde nach verschiedenen Zeitintervallen nach intravenöser oder enteraler Verabreichung bestimmt. Blutproben wurden aus der Schwanzvene des Versuchstiers vor der Verabreichung des Antibiotikums und 5, 10, 20, 40, 60, 120, 240 und 360 Minuten danach entnommen, danach zentrifugiert und das Plasma bis zur Analyse eingefroren.
Antibiotika, die nicht an Plasma gebunden waren, wurden mit Wasser verdünnt und gegen in Wasser hergestellte Standards geprüft. Für gebundene Antibiotika wurde der Einfluss der Proteinbindung eliminiert durch Verdünnen aller Standardlösungen und Proben im gesammelten Plasma. Im Fall von Ceftriaxon in Cefazolin wurde der Effekt der Bindung dadurch berücksichtigt, dass Plasmaproben mit Acetonitril mit einem Verdünnungsfaktor 1:12 deproteinisiert und gegen eine Standardkurve in Wasser verdünnt gemessen wurden. Antibiotikaspiegel wurden wie unten angegeben auf Agarplatten ermittelt.
Die Platten wurden bei 37°C über Nacht bebrütet und die Hemmzonen auf die nächsten […] abgelesen. Die Berechnungen wurden mittels einer Autoassaymaschine (Giles Scientific, Inc., New York) vorgenommen. Vergleiche J.V. Bennett et al., Applied Microbiology 14, 170-177 (1966).

Setting [6] is: both sexes, monkey, plasma, 500 mg, rectal suppository, Mit Resorptionsverstärker System: 500 mg Antibiotikum, 125 mg Laureth-12, 250 mg Labrasol, 1125 mg Witepsol H15, read-out: Cmax Bereich.
Setting [7] is: both sexes, monkey, plasma, rectal suppository, Kontrolle ohne Resorptionsverstärker, read-out: Cmax Bereich.
Setting [8] is: rectal suppository, Kontrolle ohne Resorptionsverstärker.
[9] abbreviates: rectal suppository, Mit Resorptionsverstärker System: 500 mg Antibiotikum, 125 mg Laureth-12, 250 mg Labrasol, 1125 mg Witepsol H15.
[10] abbreviates: 2-3 enteric-coated capsules each 300 mg Ceftriaxonnatrium, 225 mg Labrasol, 75 mg Laureth-12, 380 mg Witepsol H15.
Setting [11] is: Kontrollwert: Ceftriaxonnatrium 300 mg in the same capsule without absorption enhancer.
Setting [12] is: enteral (proximal jejunum), 2 capsules with 210 ml Ceftriaxonnatrium in 280 mg WITEPSOL H15 + 157,5 mg Labrasol + 52,5 mg Laureth-12, 20-50 mg/kg.

On to `Cn1nnnc1SCC1=C(C(=O)O)N2C(=O)[C@@H](NC(=O)[C@H](O)c3ccccc3)[C@H]2SC1` [Cefamandole, Cefamandol], for which the Cmax (in general, the peak of the concentration-time curve) is 5.9 to 16.4 µg/mL in data set [1] (setting [6]) and 2.3 to 4.6 µg/mL in data set [1] (setting [7]). For the same molecule, the “% Bioverfügbarkeit” value in data set [1] (setting [8]) amounted to 6.0 ± 2.3%; in data set [1] (setting [9]), 46.5 ± 16.6%.

With `CO[C@@]1(NC(=O)Cc2cccs2)C(=O)N2C(C(=O)O)=C(COC(N)=O)CS[C@@H]21` [Cefoxitin], the Cmax in data set [1] (setting [6]) lay within 4.7 to 10.8 µg/mL. In addition, the “% Bioverfügbarkeit” value in data set [1] (setting [8]) was 0%; in data set [1] (setting [9]), 77.0 ± 22.5%.

As for `CO/N=C(\C(=O)N[C@@H]1C(=O)N2C(C(=O)O)=C(CSc3nc(=O)c(=O)[nH]n3C)CS[C@H]12)c1csc(N)n1` [Ceftriaxon], the Bioverfügbarkeit is on record as 34,2 ± 14,0% in data set [2] (setting [10]); 0% in data set [2] (setting [11]); 22,4 + 13,5% in data set [2] (formulation 300 mg Ceftriaxonnatrium, 200 mg Natriumcaprylat, 75 mg Laureth-12, 415 mg Witepsol H15); 45,4 ± 18,2% in data set [3] (setting [12]); 0% in data set [3] (enteral, Kontrolle: solution of Ceftriaxon in water equivalent to 25 mg/kg, no absorption enhancer); 10,8 ± 6,5% in data set [4] (4 enteric-coated capsules each 300 mg Ceftriaxonnatrium, 225 mg Labrasol, 75 mg Laureth-12, 380 mg Witepsol H15). In addition, the Bioverfügbarkeit was 0% in data set [4] (setting [11]); 15,7 + 9,9% in data set [4] (formulation 300 mg Ceftriaxonnatrium, 75 mg Laureth-12, 415 mg Witepsol H15); 4,3% in data set [1] (rectal, Kontrollwert: 600 mg Ceftriaxonnatrium in suppository mass without absorption enhancer); 49,3 ± 13.7% in data set [1] (rectal, formulation 600 mg Ceftriaxonnatrium, 200 mg Natriumcaprylat, 125 mg Laureth-12, 1075 mg Witepsol H15). In addition, the Cmax in data set [2] (300 mg per capsule, formulation 300 mg Ceftriaxonnatrium, 200 mg Natriumcaprylat, 75 mg Laureth-12, 415 mg Witepsol H15) is 14.4 µg/mL; in data set [2] (setting [10]), 21.6 µg/mL; in data set [3] (setting [12]) it was 19.5 µg/mL; in data set [3] (other: enteral, enteral, Kontrolle: solution of Ceftriaxon in water equivalent to 25 mg/kg, no absorption enhancer) it was 0.5 µg/mL; in data set [4] (300 mg per capsule, formulation 300 mg Ceftriaxonnatrium, 200 ml Natriumcaprylat, 75 mg Laureth-12, 415 mg Witepsol H15, read-out: Cmax-Bereich), 15 to 66.3 µg/mL; in data set [4] (1200 mg, 4 enteric-coated capsules each 300 mg Ceftriaxonnatrium, 225 mg Labrasol, 75 mg Laureth-12, 380 mg Witepsol H15, read-out: Cmax-Bereich) it was 5.5 to 59.8 µg/mL. For the same molecule, the Cmax in data set [5] (female, rat, plasma, 5 mg/0,5 ml, Cmax, Acconon Con + Laureth-12 (weight ratio 8:1)) was 38.8 ± 22.6 µg/mL; in data set [5] (female, rat, plasma, 5 mg/0,5 ml, Cmax, Kontrolle Wasser, no absorption enhancer), 2.4 ± 1.9 µg/mL; in data set [5] (female, rat, plasma, 5 mg/0,5 ml, Cmax, Labrasol + Laureth-12 (weight ratio 8:1)) it was 106 ± 23 µg/mL; in data set [5] (female, rat, plasma, 5 mg/0,5 ml, Cmax, Natriumcaprylat (30%) + Laureth-12 (weight ratio 8:1)) it was 53.7 ± 13.3 µg/mL; in data set [1] (setting [6]), 18.2 to 49.6 µg/mL; in data set [1] (both sexes, monkey, plasma, 600 mg, rectal, Kontrollwert: 600 mg Ceftriaxonnatrium in suppository mass without absorption enhancer, read-out: Cmax-Bereich) it was 0.3 to 9 µg/mL. For the same molecule, the Cmax in data set [1] (both sexes, monkey, plasma, 600 mg, rectal, formulation 600 mg Ceftriaxonnatrium, 200 mg Natriumcaprylat, 125 mg Laureth-12, 1075 mg Witepsol H15, read-out: Cmax-Bereich) lay in the range of 68.1 to 1000 µg/mL; in data set [1] (setting [7]) it was 0.3 to 9 µg/mL. The “% Bioverfügbarkeit” value in data set [1] (setting [8]) is given as 4.3 ± 2.8%; in data set [1] (setting [9]), 31.5 ± 13.1%.

Consider `CC1(C)S[C@@H]2[C@H](NC(=O)Cc3ccccc3)C(=O)N2[C@H]1C(=O)O` [Penicillin G], for which the peak concentration (Cmax) in data set [5] (rat, in vivo, 5 mg, Cmax, Acconon Con + Laureth-12 (weight ratio 8:1)) was 3.5 ± 1 µg/mL; in data set [5] (rat, in vivo, 5 mg, Cmax, Kontrolle Wasser, no absorption enhancer), 0.5 ± 0.1 µg/mL; in data set [5] (rat, in vivo, 5 mg, Cmax, Labrasol + Laureth-12 (weight ratio 8:1)), 5.2 ± 1.6 µg/mL; in data set [5] (rat, in vivo, 5 mg, Cmax, Natriumcaprylat (30%) + Laureth-12 (weight ratio 8:1)), 7.4 ± 2.4 µg/mL; in data set [1] (baboon, in vivo, rectal suppository, Kontrolle ohne Resorptionsverstärker, read-out: Cmax Bereich) it was 1.2 to 2.4 µg/mL; in data set [1] (baboon, in vivo, rectal suppository, Mit Resorptionsverstärker System: 500 mg Antibiotikum, 125 mg Laureth-12, 250 mg Labrasol, 1125 mg Witepsol H15, read-out: Cmax Bereich), 2 to 11.1 µg/mL. Further, the “% Bioverfügbarkeit” value is recorded as 17.4 ± 8.0% in data set [1] (setting [8]) and 38.2 ± 26.1% in data set [1] (setting [9]).

Turning to `CN[C@H](CC(C)C)C(=O)N[C@H]1C(=O)N[C@@H](CC(N)=O)C(=O)N[C@H]2C(=O)N[C@H]3C(=O)N[C@H](C(=O)N[C@H](C(=O)O)c4cc(O)cc(O)c4-c4cc3ccc4O)[C@H](O)c3ccc(c(Cl)c3)Oc3cc2cc(c3O[C@@H]2O[C@H](CO)[C@@H](O)[C@H](O)[C@H]2O[C@H]2C[C@](C)(N)[C@H](O)[C@H](C)O2)Oc2ccc(cc2Cl)[C@H]1O` [Vancomycin], the Cmax in data set [5] (female, rat, in vivo, 5 mg/0,5 ml, Cmax, Kontrolle Wasser, no absorption enhancer) is 2.9 ± 0.6 µg/mL; in data set [5] (female, rat, in vivo, 5 mg/0,5 ml, Cmax, Labrasol + Laureth-12 (weight ratio 8:1)), 6.9 ± 1 µg/mL; in data set [5] (female, rat, in vivo, 5 mg/0,5 ml, Cmax, Natriumcaprylat (30%) + Laureth-12 (weight ratio 8:1)), 9.8 ± 3.5 µg/mL.

Gentamicin: the Cmax in data set [5] (Acconon Con + Laureth-12 (weight ratio 8:1)) came to 15.4 ± 2.3 µg/mL; in data set [5] (Kontrolle Wasser, no absorption enhancer), 3.9 µg/mL; in data set [5] (Labrasol + Laureth-12 (weight ratio 8:1)), 9.6 ± 1.9 µg/mL; in data set [5] (Natriumcaprylat (30%) + Laureth-12 (weight ratio 8:1)), 14.1 ± 6.9 µg/mL.
